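Interpolation was linear, between the two tested concentrations surrounding the appropriate level; five concentrations were tested over 48 hours in 96-well plates. TGI denotes the concentration required for complete inhibition of growth.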
Assays:
Experiment in all cases: inhibition of tumour cell growth, NCI panel, 48 h
MALME-3M melanoma = tested on: MALME-3M melanoma
RXF 393 renal = tested on: RXF 393 renal
SK-MEL-5 melanoma = tested on: SK-MEL-5 melanoma
SF-539 CNS = tested on: SF-539 CNS
TK-10 renal = tested on: TK-10 renal
MDA-MB-231 breast = tested on: MDA-MB-231 breast
MCF7 breast = tested on: MCF7 breast
A549 NSCLC = tested on: A549 NSCLC
HOP-92 NSCLC = tested on: HOP-92 NSCLC
NCI-H460 lung = tested on: NCI-H460 lung
HOP-62 NSCLC = tested on: HOP-62 NSCLC
SK-OV-3 ovarian = tested on: SK-OV-3 ovarian
SNB-75 CNS = tested on: SNB-75 CNS
NCI-H23 lung = tested on: NCI-H23 lung
OVCAR-5 ovarian = tested on: OVCAR-5 ovarian
786-0 renal = tested on: 786-0 renal
PC-3 prostate = tested on: PC-3 prostate
ACHN renal = tested on: ACHN renal
SK-MEL-28 melanoma = tested on: SK-MEL-28 melanoma
K-562 leukemia = tested on: K-562 leukemia
SR leukemia = tested on: SR leukemia
KM12 colon = tested on: KM12 colon
DU-145 prostate = tested on: DU-145 prostate
SK-MEL-2 melanoma = tested on: SK-MEL-2 melanoma
OVCAR-4 ovarian = tested on: OVCAR-4 ovarian
MDA-N = tested on: MDA-N
NCI/ADR-RES ovarian = tested on: NCI/ADR-RES ovarian
CAKI-1 renal = tested on: CAKI-1 renal
M14 melanoma = tested on: M14 melanoma
A498 renal = tested on: A498 renal
NCI-H522 lung = tested on: NCI-H522 lung
HCT-15 colon = tested on: HCT-15 colon
CCRF-CEM leukemia = tested on: CCRF-CEM leukemia
COLO 205 colon = tested on: COLO 205 colon
HCC-2998 colon = tested on: HCC-2998 colon
HT29 colon = tested on: HT29 colon
LOX IMVI melanoma = tested on: LOX IMVI melanoma
SF-268 CNS = tested on: SF-268 CNS
HCT-116 colon = tested on: HCT-116 colon
BT-549 breast = tested on: BT-549 breast
NCI-H226 lung = tested on: NCI-H226 lung
UACC-257 melanoma = tested on: UACC-257 melanoma
MDA-MB-435 = tested on: MDA-MB-435
U251 CNS = tested on: U251 CNS
MOLT-4 leukemia = tested on: MOLT-4 leukemia
SN12C renal = tested on: SN12C renal
T-47D breast = tested on: T-47D breast
EKVX NSCLC = tested on: EKVX NSCLC
OVCAR-8 ovarian = tested on: OVCAR-8 ovarian
IGROV1 ovarian = tested on: IGROV1 ovarian
SW-620 colon = tested on: SW-620 colon
SF-295 CNS = tested on: SF-295 CNS
OVCAR-3 ovarian = tested on: OVCAR-3 ovarian
RPMI-8226 leukemia = tested on: RPMI-8226 leukemia
UACC-62 melanoma = tested on: UACC-62 melanoma
SNB-19 CNS = tested on: SNB-19 CNS
HS 578T breast = tested on: HS 578T breast
UO-31 renal = tested on: UO-31 renal

Measured: TGI

CCCCC1(N=[N+]=[N-])C(=O)c2cccc3c2N(CCC3)C1=O (configuration not stated)
not listed: UO-31 renal
> 100 µM: all other assays above

CCCSc1cc(Cl)c(C)cc1S(=O)(=O)n1ccnc1OCCCN(C)C
not listed: HOP-92 NSCLC | SNB-75 CNS | RPMI-8226 leukemia
> 100 µM: all other assays above

Reference: PubChem BioAssay (NCI)
